{"source": "paper PMC12372887", "about": "“Mechanism and cellular actions of the potent AMPK inhibitor BAY-3827” (Science Advances, 2025)", "key": {"mouse primary adipocytes": {"test_system": "mouse primary adipocytes", "assay": "Glucose uptake of primary adipocytes", "type": "cell-based", "settings": "varying doses"}, "[1]": {"test_system": "AMPKα1α2−/− DKO primary hepatocytes", "assay": "Lipogenesis assay ([14C]-acetate incorporation into fatty acids)", "type": "cell-based, mouse", "method": "Mouse hepatocytes were isolated by collagenase perfusion as previously described ([47]). Hepatocytes were seeded in medium Eagle-199 (MEM-199) (#41150, Thermo Fisher Scientific) containing penicillin G (100 U/ml), streptomycin (100 μg/ml), and 10% (v/v) fetal bovine serum (FBS). Hepatocytes were left for attachment (3 to 4 hours) and serum-starved overnight at 37°C with 5% CO2 in MEM-199 supplemented with penicillin G (100 U/ml), streptomycin (100 μg/ml), 10 nM insulin, and 100 nM dexamethasone. […] Cells were then harvested in 0.5 ml of phosphate-buffered saline (PBS), transferred into 1 ml of 40% KOH and 2 ml of methanol followed by 1-hour incubation at 80°C. Lipids were […] by acidifying the samples in 37% HCl and extracted with petroleum ether. Extracts were allowed to evaporate to dryness and then dissolved in Ultima Gold scintillation fluid for determination of [^14C]-acetate incorporation into lipids."}, "[2]": {"test_system": "AMPKα1α2+/+ (control) primary hepatocytes", "assay": "RNA-seq transcriptome analysis of primary hepatocytes", "type": "cell-based, mouse", "method": "Primary hepatocytes were pretreated for 15 min with BAY-3827 5 μM at 37°C in MEM-199 supplemented with penicillin G (100 U/ml), streptomycin ([…]), and 100 nM dexamethasone followed by addition of MK-8722 10 μM treatment. Six hours posttreatment, the cells were washed twice with room-temperature PBS. RNA was isolated using QIAwave RNAeasy kit (catalog no. 74104) with on-column deoxyribonuclease (DNAse) treatment using Qiagen RNase-free DNase set (catalog no. 79256) following the manufacturer’s protocol. Messenger RNA-seq was performed by the Single-Cell Omics platform at the Novo Nordisk Foundation Center for Basic Metabolic Research. Libraries were prepared using the Universal Plus mRNA-seq protocol (Tecan) as recommended by the manufacturer. Libraries were quantified with NuQuant using the CLARIOstar Plate Reader (BMG Labtech), quality checked using a TapeStation instrument (Agilent Technologies), and subjected to 52–base pair paired-end sequencing on a NovaSeq 6000 (Illumina). The sequencing analysis pipeline nf-core ([69]) was used, with alignment and quantification selection of STAR and Salmon, and mouse GRCm38 set as the reference genome. Unique molecular identifier (UMI)-based deduplication was performed using UMI tools, and sorting and index alignments were completed with SAMtools as part of the pipeline. Differential expression analysis was carried out using the R package edgeR ([70]) and a batch-effect removal was performed in limma ([71]) to account for the variability induced by two mice (291 + 295) from which cells with the same treatments had been pooled to obtain the required cell confluence. Venn diagrams were produced using the R package ggvenn ([72]). […] Heatmaps of log2 counts per million normalized counts were produced using R package pheatmap ([73]). GO enrichment analysis was performed using the R package clusterProfiler version 4.6.2 ([74]) setting FDR < 0.05 with reference organism specified as mouse, pAdjustMethod was set to BH, and ontology category set to biological process, with a qvalueCutoff of 0.05. Visualization analyses were conducted in RStudio version 4.2.0 ([75])."}}, "note": "Values joined by “and” are separate entries in the source; they are usually repeats but may differ in a detail not shown here. Identical values can stand only once.", "data": [{"smiles": "CCc1ccccc1C(=O)Nc1n[nH]c2c(C)c(F)c(C3C(C#N)=C(C)N(C)C(C)=C3C#N)cc12", "note": "[BAY-3827, N-[5-(3,5-dicyano-1,2,6-trimethyl-4H-pyridin-4-yl)-6-fluoro-7-methyl-1H-indazol-3-yl]-2-ethylbenzamide]", "values": [{"measurement": "basal and insulin-stimulated glucose uptake", "setting": "mouse primary adipocytes", "result": "not significantly affected"}, {"measurement": "effect on lipogenesis", "setting": "[1]", "result": "no effect"}, {"measurement": "LogFC ADORA2B", "setting": "[2]; 5 μM + MK-8722 versus MK-8722", "result": "−1.3062"}, {"measurement": "LogFC AVPR1A", "setting": "[2]; 5 μM + MK-8722 versus MK-8722", "result": "−1.708"}, {"measurement": "LogFC EHHADH", "setting": "[2]; 5 μM + MK-8722 versus MK-8722", "result": "−1.5955"}, {"measurement": "LogFC HAL", "setting": "[2]; 5 μM + MK-8722 versus MK-8722", "result": "−1.348"}, {"measurement": "LogFC HMGCR", "setting": "[2]; 5 μM + MK-8722 versus MK-8722", "result": "−0.1621"}, {"measurement": "LogFC HPGD", "setting": "[2]; 5 μM + MK-8722 versus MK-8722", "result": "−1.745"}, {"measurement": "LogFC LIPE", "setting": "[2]; 5 μM + MK-8722 versus MK-8722", "result": "−0.2816"}, {"measurement": "LogFC LPIN2", "setting": "[2]; 5 μM + MK-8722 versus MK-8722", "result": "−0.5277"}, {"measurement": "LogFC PFKFB2", "setting": "[2]; 5 μM + MK-8722 versus MK-8722", "result": "−0.5421"}, {"measurement": "LogFC PLIN5", "setting": "[2]; 5 μM + MK-8722 versus MK-8722", "result": "−1.3"}, {"measurement": "LogFC SP1", "setting": "[2]; 5 μM + MK-8722 versus MK-8722", "result": "−0.4397"}, {"measurement": "LogFC TBC1D15", "setting": "[2]; 5 μM + MK-8722 versus MK-8722", "result": "−0.4895"}, {"measurement": "LogFC TBC1D17", "setting": "[2]; 5 μM + MK-8722 versus MK-8722", "result": "−0.5598"}, {"measurement": "MK-8722–stimulated AMPK-dependent genes down-regulated", "setting": "[2]; 5 μM + MK-8722 versus MK-8722", "result": "~ 30% and 30.1%"}, {"measurement": "logFC CALCOCO1 (RSK2 gene)", "setting": "[2]; 5 μM + MK-8722 versus MK-8722", "result": -0.7893}, {"measurement": "logFC CENPE (RSK1 gene)", "setting": "[2]; 5 μM + MK-8722 versus MK-8722", "result": -1.28}, {"measurement": "logFC CENPI (RSK1 gene)", "setting": "[2]; 5 μM + MK-8722 versus MK-8722", "result": -0.6534}, {"measurement": "logFC CENPW (RSK1 gene)", "setting": "[2]; 5 μM + MK-8722 versus MK-8722", "result": -0.4735}, {"measurement": "logFC DSN1 (RSK1 gene)", "setting": "[2]; 5 μM + MK-8722 versus MK-8722", "result": -0.789}, {"measurement": "logFC FN1 (RSK1 gene)", "setting": "[2]; 5 μM + MK-8722 versus MK-8722", "result": -0.2178}, {"measurement": "logFC MASTL (RSK1 gene)", "setting": "[2]; 5 μM + MK-8722 versus MK-8722", "result": -0.8494}, {"measurement": "logFC NEK2 (RSK1 gene)", "setting": "[2]; 5 μM + MK-8722 versus MK-8722", "result": -1.199}, {"measurement": "logFC SPC25 (RSK1 gene)", "setting": "[2]; 5 μM + MK-8722 versus MK-8722", "result": -0.6826}, {"measurement": "logFC STAT5B", "setting": "[2]; 5 μM + MK-8722 versus MK-8722", "result": -0.6006}, {"measurement": "differentially expressed genes that are down-regulated", "setting": "[2]; 5 μM + MK-8722 versus MK-8722, 2511 significant genes", "result": 61.2, "unit": "%"}, {"measurement": "PPARGC1A gene counts", "setting": "[2]; 5 μM + MK-8722 versus MK-8722 alone", "result": "significantly reduced"}]}]}
